Laboratory results as given in patent publication US4190642A, “Ocular therapeutic system for dispensing a medication formulation” (Alza Corporation, priority 1979, dated 1980).
Where a name gives a salt, the structure may show the parent alone. Read-outs that look alike come from different tables or passages of the source.

Columns and labels:
solubility in water = test: solubility in water
From the text: (§1) System 10 houses in depot 14 from about 1 to 40 weight percent of pilocarpine solute and from 1 to 25 weight percent of epinephrine solute, with the remaining weight percent of system 10 polymer 12. […] Generally, the pilocarpine solute and the epinephrine solute will have a particle size of about 0.1 to 100 microns, and a presently preferred particle size of about 0.5 to 20 microns. The osmotic delivery device consisting of sole drug solute of a specific particle size dispersed in a polymer is the invention of Michaels and Guillod as disclosed and claimed in copending U.S. Patent Application Ser. No. 855,605, filed on Nov. 29, 1977. This application and the copending application are both assigned to the Alza Corporation of Palo Alto, California.
Next, the contents of the bowl are removed, cut into 3 mm ×3 mm pieces with a multi-blade strip die and the strips fed to the hopper of an extruder. The pieces have a residence time of 5 minutes in the extruder with the screw of the extruder rotating at 20 rpm. A film is extruded through a 12 mil opening at the end of the extruder and punched into 13.5×5.8 mm inserts.

[1] = osmotic pressure (vapor pressure osmometer); assay type: physicochemical
From the text: as §1, with “The osmotic delivery device consisting of sole drug solute of a specific particle size dispersed in a polymer is the invention of Michaels and Guillod as disclosed and claimed in copending U.S. Patent Application Ser. No. 855,605, filed on Nov. 29, 1977.” left out
The osmotic pressure, ATM, of the above solutes can be measured in a commercially available osmometer that measures the vapor pressure difference between pure water and the solution containing a solute to be analyzed, and according to standard thermodynamic principles, the vapor pressure ratio is converted into osmotic pressure difference.

Row | solubility (solubility in water; water) | solubility (solubility in water; water, solubility in water) | SMILES | osmotic pressure [1] | osmotic pressure ([1]; Example 5) | solubility (solubility in water; water solution, hydrochloride) | osmotic pressure ([1]; hydrochloride) | solubility (solubility in water; water, solubility in water, 37° C.) | solubility (solubility in water; water, solubility, water solution)
1 | 27 grams in 100 ml of water solution | 270 mg/mL | CC[C@@H]1C(=O)OC[C@@H]1Cc1cncn1C [pilocarpine nitrate] | 37 atmospheres | 37 ATM |  |  |  | 
2 |  |  | CNC[C@H](O)c1ccc(O)c(O)c1 [epinephrine hydrochloride] |  |  | 80 grams in 100 ml of water solution | 185 atmospheres |  | 
3 | 80 grams in 100 ml of water solution |  | CC[C@@H]1C(=O)OC[C@@H]1Cc1cncn1C [pilocarpine hydrochloride] |  |  |  | 300 atmospheres |  | 
4 |  |  | CNC[C@H](O)c1ccc(O)c(O)c1 [epinephrine bitartrate] | 78.5 atmospheres | 78.5 ATM |  |  | 670 mg/mL | 670 mg/mL
